From US20250382621A1, “IMMUNE EFFECTOR CELL THERAPIES WITH ENHANCED EFFICACY” (Novartis AG, priority 2015, published 2025)
Where a chain is given by its changes, count along the chain named. Where a name gives a salt, the structure may show the parent alone. Read-outs that look alike come from different tables or passages of the source.

Assays:
full-length LSD1 = target: T1, full-length LSD1 (Homo sapiens, UniProt O60341); test: FL-LSD1 LC-MS assay; format: biochemical; details: 0.4 nM FL-LSD1, H3K4me1 peptide substrate, 60 min room temperature; read-out: LCMS IC50 (LSD1 IC50 as measured by LCMS)
T1 construct: the full-length LSD1 and 0.5 pM FAD in reaction buffer
Excerpt: Representative compounds of the present disclosure were serially and separately diluted 3-fold in DMSO to obtain a total of twelve concentrations. […] The data were then fit to a dose response equation using the program Helios to get the IC50 values of the test compound.

Pan CD3+ T cells = test: Dose response of LSD1 inhibitors on T cell phenotypes; details: for EC50: Homo sapiens, T-cell; for CD4+ Tscm percentage: at 100 nM
Procedure: Cells were isolated from in vitro culture, washed once in MACS+0.5% BSA buffer, and stained on ice using either biotinylated Protein L followed by incubated with a fluorochrome-conjugated streptavidin reagent or an antibody recognizing the given target antigen. In all analyses, the population of interest was gated based on forward vs side scatter characteristics, followed by singlet gating, and live cells were gated.
The following parameters were investigated: • 1. Ratio of CD8/CD4 were calculated; • 2. % Tscm, Tem, Tem of CD3+ T cells; • 3. Ratios of Tscm/Tem and Tscm/Tcm of CD3+ T cells were calculated; • 4. % Tscm, Tem, Tem of CD8+ or CD4+ T cells were calculated; • 5. Ratios of Tscm/Tem and Tscm/Tcm of CD8+ or CD4+ T cells were calculated; and/or • 6. In the case of CAR+-T cells, percentage of Tscm, Tem, Tem of CD19-CAR+ T, and BCMA-10-CAR+ T cells were evaluated.
The Tscm population were evaluated as double CD45RA+CCR7+ or triple CD45RA+CCR7+CD62L+ in a given total live CD3+ or subset CD4+ or CD8+ T cell population. Tem were presented as double CD45RA−CCR7− and Tem as CD45RA−CCR7+ in a given total live CD3+ or subset CD4+ or CD8+ T cell population (FIG. 19 and FIG. 25 illustrate the gating strategies).
In all instances, LSD inhibitor compounds were either resuspended in water (H2O) and/or DMSO, depending on compound solubility. In all instances compounds were added throughout the ex vivo T cell culture, and T cells were washed extensively prior to assay. […] In the figures, “control” refers to vehicle with no LSD inhibitor compound added. For Pan CD3+ T cell expansion experiment, compound treatment was started at 4 h or 24 h after activation; for CART cell production, compound treatment was started at 48 h after viral transduction, and all treatments continued through culture period in all conditions.
Compounds were refreshed every 2-3 days when fresh media is replenished. Following 10 days of expansion, T cells were harvested and de-beaded and their phenotypes were analyzed by flow cytometry using antibodies against CD3, CD4, CD8, CD45RA, CCR7, CD62L, CD27 and CD28 plus live/dead dye to exclude the dead cell population.

T cells = test: T cell phenotype after expansion with LSD1 shRNA; format: cell-based, human; details: for enrichment of TSCM in resulting CD4+ T cell population: vs normal expansion
Procedure: Flow cytometry was performed on a four laser Fortessa (Becton-Dickinson).
T cells were isolated by negative selection and expanded with anti-CD3/CD28 beads at a 3:1 ratio for 10 days. On day 1, T cells were transduced with lentiviral expression vectors containing LSD1 shRNA targeting sequences that co-expressed the fluorescent protein mCherry. Following expansion, T cell phenotypes of mCherry+ T cells were assessed by flow cytometry.

[1] = anti-CD3/CD28 beads 3:1, 10 days, mCherry+ cells

## Cc1ccc(-c2ncc(OC[C@@H]3CCNC3)cc2-c2ccc(C#N)cc2)cc1 [Compound C, (R)-4-(5-(pyrrolidin-3-ylmethoxy)-2-(p-tolyl)pyridin-3-yl)benzonitrile]
full-length LSD1
  IC50: 30 nM

## c1ccc([C@@H]2C[C@H]2NC2CCNCC2)cc1 (relative stereo) [LSD1i-GSK, rel-N-[(1R,2S)-2-Phenylcyclopropyl]-4-Piperidinamine hydrochloride (1:2)]
Pan CD3+ T cells; 10 day expansion
  total expansion rate of total cells: without changing the total expansion rate of total cells
Pan CD3+ T cells; 10 day expansion, dose escalation
  ratio of CD8/CD4: can significantly increase the ratio of CD8/CD4
Pan CD3+ T cells; read-out: EC50 for inducing Tscm CD3+ T cells
  EC50: 1.08 nM
Pan CD3+ T cells; read-out: EC50 for inducing Tscm CD8+ T cells
  EC50: 1.08 nM
Pan CD3+ T cells
  CD4+ Tscm percentage: about 5%
Pan CD3+ T cells; dose elevation, Tscm/Tcm unchanged
  ratio of Tscm/Tem of CD3+ T cells: increases in response to dose elevation
Pan CD3+ T cells; dose elevation, hardly seen in the CD4+ population
  ratio of Tscm/Tem of CD8+ T cells: significantly increases in response to dose elevation
Pan CD3+ T cells; observed between 1 nM to 100 nM, Tcm remain the same
  CD3+ Tscm and Tem percentage: could increase/sustain CD3+ Tscm, decrease Tem, in a dose responsive fashion
Pan CD3+ T cells; observed between 1 nM to 100 nM, Tcm unchanged
  CD8+ Tscm, CD4+ Tscm and Tem percentage: could increase/sustain CD8+ Tscm and CD4+ Tscm, decrease Tem, in a dose responsive fashion

## Cc1cc2c(cc1C#N)c(-c1cccc(N)c1C)cn2[C@H]1CC[C@H](O)CC1 [Compound 93, Trans-3-(3-amino-2-methylphenyl)-1-(4-hydroxycyclohexyl)-6-methyl-1H-indole-5-carbonitrile]
Pan CD3+ T cells
  CD4+ Tscm percentage: about 5%

## LSD1 2: shRNA to LSD1, sequence encoding shRNA SEQ ID NO: 127 (DNA CAGAAGGCCTAGACATTAAACCTCGAGGTTTAATGTCTAGGCCTTCTGTTTTTTGA)
T cells; CD4+ T cells
  enrichment of TSCM in resulting CD4+ T cell population: enriched in TSCM
T cells; [1]
  percentage of CD8+ T cells having the TSCM phenotype (CD45RA+CD62L+CCR7+CD27+CD95+): ~50%

B1: LSD1 1A: shRNA to LSD1, sequence encoding shRNA SEQ ID NO: 125 (nucleic acid)
DNA: CGGTTGCTAGAAGCTACATCTGTTAATATTCATAGCAGATGTAGCTTCTAGCAACCGTTTTTTGA
T cells; CD4+ T cells
  enrichment of TSCM in resulting CD4+ T cell population: enriched in TSCM
T cells; [1]
  percentage of CD8+ T cells having the TSCM phenotype (CD45RA+CD62L+CCR7+CD27+CD95+): ~50%

B2: LSD1 1B: shRNA to LSD1, sequence encoding shRNA SEQ ID NO: 126 (nucleic acid)
DNA: B1 DNA with C14T, C20T
T cells; CD4+ T cells, anti-CD3/CD28 beads 3:1, 10 days, mCherry+ cells
  percentage of CD4+ T cells having the TSCM phenotype (CD45RA+CD62L+CCR7+CD27+CD95+): up to 20%
T cells; [1]
  percentage of CD8+ T cells having the TSCM phenotype (CD45RA+CD62L+CCR7+CD27+CD95+): ~50%
